# Measured values reported in patent US20070218483A1, “SITE-SPECIFIC INCORPORATION OF FLUORINATED AMINO ACIDS INTO PROTEINS” (FRANKLIN AND MARSHALL COLLEGE, priority 2006, published 2007).
# “Also recorded” adds a separate entry of the source.
# Assays:
# [1] = test system: E. coli DH10B cells; settings: in vivo NMR cell samples
# Procedure: Labeled NTR was also monitored in vivo.
# E. coli DH10B cells containing pDule-tfmPhe1 and pTrc-NTR-124TAG or pTrc-NTR-36TAG were grown in modified minimal media containing supplemented flavin at 10 μM and induced to produce protein with 1.0 mM IPTG at an OD of 0.8. […] Cells were harvested 18 hrs after induction by centrifugation and stored at −80° C. Cells (from 0.5 L of media) for in vivo NMR measurements were thawed on ice, resuspended in 50 mL of PBS buffer (10 mM NaH2PO4, 140 mM NaCl pH 7.8) at 0° C., and repelleted by centrifugation at 5000 g. The cells for in vivo NMR spectra shown for NTR-tfmPhe-36 and NTR-tfmPhe-124 were washed 3 times and 5 times respectively.
# NMR data were collected using a Varian Unity INOVA 500 MHz spectrometer fitted with a 5 mm broadband probe. The proton coil was tuned to fluorine frequency (470.114 MHz). Standard decoupling parameters were used with a 100,000 Hz spectral width, 9 μs pulse length (approximately 45°), 2.00 s acquisition time, and 1.00 s relaxation delay. A 10 Hz line broadening was applied and all spectra were recorded at 25±0.2° C. All spectra were locked and referenced to an internal standard containing 0.2% solution of 4-fluorotoluene in toluene-d8 (set at −120.771 ppm referenced from trifluorotoluene at −65.000 ppm). […]
# [2] = test system: evolved tfmPhe MjTyrRS/tRNATyrCUA; assay: Incorporation into protein in response to TAG codon with tfmPhe synthetase, SDS-PAGE; format: cell-based, Methanococcus jannaschii; settings: E. coli, amino acid added to the media
# Excerpt: The two top performing synthetases were subcloned into the pDule vector (pDule-tfmPhe1 and pDule-tfmPhe2) for further analysis of a protein containing tfmPhe. The medium copy pDule plasmid is designed to contain both the tRNA^TyrCUA and new synthetase allowing a standard high copy protein expression plasmid for use in production of tfmPhe containing protein.
# Selection of tfmPhe specific tRNA-aminoacyl synthetase. A library of tRNA-aminoacyl synthetases was encoded on a kanamycin (Kn) resistant plasmid, pBK-JM-Lib, under control of the constitutive E. coli GlnRS promoter and terminator. The library was transformed by electroporation into DH10B E. coli containing the tetracycline (Tet) resistant positive selection plasmid, pREP2/YC-JYCUA. The positive selection plasmid encodes a mutant tRNA^TyrCUA, an amber disrupted chloramphenicol acetyltransferase, and an amber disrupted T7 RNA polymerase that drives the production of green fluorescent protein. The first positive selection was performed in the presence of 1 mM tfmPhe, 70 μg/mL chloramphenicol (Cm), 50 μg/mL Kn, and 25 μg/mL Tet in a modified GMML media at 37° C. with 250 rpm shaking until the OD was >1.0. Plasmid DNA was extracted and pBK-JM-Lib was separated from pREP2/YC-JYCUA by agarose gel electrophoresis. […]
# [3] = test system: HDH; assay: Photo crosslinking of protein upon ultraviolet irradiation, SDS-PAGE; settings: amino acid incorporated in protein
# Excerpt: The amino acid pBpa in a protein may be used to determine the structural organization of the protein and conformational changes by initiating crosslinking with nearby peptides via externally provided ultraviolet irradiation. […] The time course of HDH-225pBpa and HDH-225-dfBpa during irradiation was studied by SDS-PAGE.
# [4] = biological target: T1, modified pBpa MjTyrRS/tRNATyrCUA (Methanocaldococcus jannaschii, UniProt Q57834, D158T/E107P/I159A/L65V/Q56R/V103L/Y32G); assay: Incorporation into protein in response to TAG codon with modified pBpa synthetase (Ser159Ala, Leu65Val), SDS-PAGE; format: cell-based, Methanococcus jannaschii; settings: E. coli, modified pBpa synthetase (SEQ ID NO: 8), Ser159Ala and Leu65Val
# T1 construct: expressed in transfected cells; host or cells: E. coli
# T1 sequence (Q57834 whole entry Y32G/Q56R/L65V/V103L/E107P/D158T/I159A): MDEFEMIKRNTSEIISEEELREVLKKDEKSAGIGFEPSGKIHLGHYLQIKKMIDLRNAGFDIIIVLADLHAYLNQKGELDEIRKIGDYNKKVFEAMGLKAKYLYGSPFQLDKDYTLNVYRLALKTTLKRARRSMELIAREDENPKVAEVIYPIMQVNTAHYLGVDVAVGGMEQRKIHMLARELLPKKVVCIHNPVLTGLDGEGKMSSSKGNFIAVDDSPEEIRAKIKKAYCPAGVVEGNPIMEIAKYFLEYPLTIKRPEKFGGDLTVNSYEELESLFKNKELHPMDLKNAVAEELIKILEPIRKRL
# Excerpt: (§1) To improve the incorporation efficiency of dfBpa, the active site of pBpa MjTyrRS was altered to better accommodate the slightly larger dfBpa amino acid. Amino acids in the active site (Ser159, Leu65) were reduced in size or reduced in polarity to better accept dfBpa.
# (§2) Analysis of fluorinated pBpa-protein by SDS-PAGE.
# [5] = biological target: T2, pBpa MjTyrRS/tRNATyrCUA (Methanocaldococcus jannaschii, UniProt Q57834, D158T/E107P/I159S/Q56R/V103L/Y32G); assay: Incorporation into protein in response to TAG codon with pBpa synthetase, SDS-PAGE; format: cell-based, Methanococcus jannaschii; settings: E. coli, amino acid added to the media, pBpa synthetase (SEQ ID NO: 7)
# T2 construct: expressed in transfected cells; host or cells: E. coli carrying pDULE-pBpa
# T2 sequence (Q57834 whole entry Y32G/Q56R/V103L/E107P/D158T/I159S): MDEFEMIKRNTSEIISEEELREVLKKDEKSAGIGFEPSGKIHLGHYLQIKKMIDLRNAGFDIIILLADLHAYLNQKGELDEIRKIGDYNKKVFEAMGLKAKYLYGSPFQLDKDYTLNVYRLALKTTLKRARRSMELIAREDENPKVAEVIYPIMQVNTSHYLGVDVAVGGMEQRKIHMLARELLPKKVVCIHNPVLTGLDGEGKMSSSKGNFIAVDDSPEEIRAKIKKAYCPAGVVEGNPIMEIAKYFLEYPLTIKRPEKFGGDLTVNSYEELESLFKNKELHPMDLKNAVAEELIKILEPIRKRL
# Excerpt: Incorporation of additional ^19F amino acids with p-benzoyl-phenylalanine (pBpa) synthetase. Using a synthetase known to selectively incorporate pBpa (SEQ ID NO: 7), other ^19F amino acids of similar shape and electrostatics may be incorporated site-specifically into proteins.
# Analysis of incorporation of p-fluorobenzoylphenylalanine into protein response to a TAG stop codon in E. coli with evolved pBpa MjTyrRS/tRNA TyrCUA by SDS-PAGE.
# as §1, §2
smiles,measurement,setting,value
"NC(=O)C1=CN([C@@H]2O[C@H](COP(=O)(O)OP(=O)(O)OC[C@H]3O[C@@H](n4cnc5c(N)ncnc54)[C@H](O)[C@@H]3O)[C@@H](O)[C@H]2O)C=CC1 [NADH, reduced nicotinamide adenine dinucleotide]",cell permeability,[1],poor cell permeability
"Cc1ccc(C[C@H](N)C(=O)O)cc1F [compound 4, 4-methyl-3-fluorophenylalanine]",incorporation into protein in response to TAG codon,[2],incorporated in the location coded by TAG; also recorded: full length HDH was produced containing 4
"N[C@@H](Cc1ccc(C(=O)c2c(F)cccc2F)cc1)C(=O)O [compound 6, 2′,6′-difluoro-p-benzoylphenylalanine]",crosslinking upon irradiation,[3],shown to crosslink upon irradiation
same,incorporation into protein in response to TAG codon,[4]; listed as dfBpa,high efficiency; also recorded: length HDH was produced containing dfBpa
same,incorporation into protein in response to TAG codon,[5],incorporated in the location coded by TAG; also recorded: less effectively than pBpa or 7
same,incorporation into protein in response to TAG codon,[5]; listed as dfBpa,full length HDH was produced containing dfBpa
"O=C(N[C@@H](Cc1ccc(F)cc1)C(=O)O)c1ccccc1 [compound 7, p-fluorobenzoylphenylalanine]",crosslinking upon irradiation,[3],shown to crosslink upon irradiation
same,incorporation into protein in response to TAG codon,[5],incorporated in the location coded by TAG
same,incorporation into protein in response to TAG codon,[5]; listed as pfBpa,full length HDH was produced containing pfBpa
O=C(O)c1cccnc1 [nicotinic acid],cell permeability,[1],poor cell permeability
"N[C@@H](Cc1ccc(C(=O)c2ccccc2)cc1)C(=O)O [pBpa, p-benzoyl-phenylalanine, reference compound]",incorporation into protein in response to TAG codon,[4],high efficiency; also recorded: full length HDH was produced containing pBpa
same,incorporation into protein in response to TAG codon,[5],full length HDH was produced containing pBpa
